The source of these data is patent US11292759B2, “Hydroxycitric acid metal heterocyclic compounds with covalent characteristics” (GLYKON TECHNOLOGIES GROUP, LLC, priority 2018, dated 2022).

Data set [1] can be described thus: Conductivity of solutions (HACH Conductivity/TDS meter). The data set is classed as physicochemical. To be noted: Concentration 0.3 mmol/l in demineralized water, no additive. From the text:
The structure of the subject compounds (e.g., as described herein) can be deduced using a conductance meter to observe the extent of dissociate of the first and/or second metals from the compounds. In an experiment described below equimolar samples and comparative electrolyte conductance to K-acetate solution as a standard, data may be obtained which is characteristic of electrolyte binary conductants. […] The KMgHCA solution in water may have a pH 8-10 depending on the concentration. Under this condition, the heterocyclic anion formed will tend toward a stable form rather than an ionizable one.
Several experiments investigating the electrical conductivities of solutions of KMgHCA, KZnHCA and KMnHCA are performed. The equipment used is HACH Conductivity/TDS meter, P/N=4460-00.
Materials: KMgHCA.4H2O, KZnHCA.2H2O, KMnHCA.2H2O are prepared using methods described herein. KC2H3O2 and […] was obtained from Merck. H2O used was demineralized water.
General procedure: All the HCA compounds and Acetate were weighed and placed in a volumetric flask and dissolved with demineralized water to one liter solution and then they were tested the conductivity (EC).

For data set [2] the following is noted: cited from earlier work.
Data set [3] concerns de novo lipogenesis (DNL). Nature of the data set: De novo lipogenesis in rats (literature). To be noted: for a 70 kg human being. The data set is classed as in vivo. An excerpt: Dosages of various HCA compositions found to be effective are quite large, indeed beyond the normal range for pharmaceutical products, with efficacy that is highly variable. […] A later study found a significant, yet limited effect after 7 days of a diet designed specifically to induce de novo lipogenesis in humans. (Physiol Behav. 2006 Jul. 30; 88(4-5): 371-81). See also, Nutr Metab (Lond). 2005 Sep. 13; 2:23.

The subject of data set [4] is de novo lipogenesis (DNL). To be noted: obese subjects, 6 g HCA/day for 5 days; cited from earlier work.
Data set [5] deals with osteoporosis and calcification. Put plainly: Example 13: comparison of bimetal regimes in two subjects. The data set is classed as in vivo, human. Set-up: key to Treatment performance: ++: very good performance; +−: good but slight complaint. As to the method:
Subject I: a person, 40 kg (cited in Example 11, above)
Subject II: a person; 72 kg
Treatment: A. Mixture 25% KCa HCA+75% KMg HCA bimetals (100-200 mg)
Treatment B: Only KMg HCA but not KCa HCA was used.

A further data set relates to Osteoporosis. Nature of the data set: Example 14: comparison of KCaHCA and/or KMgHCA compositions in one subject. The data set is classed as in vivo, human. To be noted: 200 mg doses, after switch from experiment 1 regimen. As to the method:
• Subject: (cited as Example 12, above) • • Problem: Osteoporosis • Treatment: Materials were consumed 3 times a day after meals. • Experiment 1. Blending 150 mg KMgHCA.8H2O+50 mg KCaHCA.3H2O • A 200 mg mixture of KCaHCA (25%) and KMgHCA (75%) prepared according to the subject methods was used. The actual percentage of calcium was (40/338)×25%=2.96%. Since KCaHCA.3H2O was used the percentage of magnesium in the composition was (24/412)×75%=4.37%. Since KMgHCA.8H2O was used, the ratio Ca:Mg=0.15:0.36 in mmol. • Experiment 2. 200 mg KMgHCA.8H2O • Experiment 3.

For data set [6], the target named is T1, ATP citrate lyase (EC 4.1.3.8) (Homo sapiens, UniProt P53396).
T1 sequence (P53396 1-1101): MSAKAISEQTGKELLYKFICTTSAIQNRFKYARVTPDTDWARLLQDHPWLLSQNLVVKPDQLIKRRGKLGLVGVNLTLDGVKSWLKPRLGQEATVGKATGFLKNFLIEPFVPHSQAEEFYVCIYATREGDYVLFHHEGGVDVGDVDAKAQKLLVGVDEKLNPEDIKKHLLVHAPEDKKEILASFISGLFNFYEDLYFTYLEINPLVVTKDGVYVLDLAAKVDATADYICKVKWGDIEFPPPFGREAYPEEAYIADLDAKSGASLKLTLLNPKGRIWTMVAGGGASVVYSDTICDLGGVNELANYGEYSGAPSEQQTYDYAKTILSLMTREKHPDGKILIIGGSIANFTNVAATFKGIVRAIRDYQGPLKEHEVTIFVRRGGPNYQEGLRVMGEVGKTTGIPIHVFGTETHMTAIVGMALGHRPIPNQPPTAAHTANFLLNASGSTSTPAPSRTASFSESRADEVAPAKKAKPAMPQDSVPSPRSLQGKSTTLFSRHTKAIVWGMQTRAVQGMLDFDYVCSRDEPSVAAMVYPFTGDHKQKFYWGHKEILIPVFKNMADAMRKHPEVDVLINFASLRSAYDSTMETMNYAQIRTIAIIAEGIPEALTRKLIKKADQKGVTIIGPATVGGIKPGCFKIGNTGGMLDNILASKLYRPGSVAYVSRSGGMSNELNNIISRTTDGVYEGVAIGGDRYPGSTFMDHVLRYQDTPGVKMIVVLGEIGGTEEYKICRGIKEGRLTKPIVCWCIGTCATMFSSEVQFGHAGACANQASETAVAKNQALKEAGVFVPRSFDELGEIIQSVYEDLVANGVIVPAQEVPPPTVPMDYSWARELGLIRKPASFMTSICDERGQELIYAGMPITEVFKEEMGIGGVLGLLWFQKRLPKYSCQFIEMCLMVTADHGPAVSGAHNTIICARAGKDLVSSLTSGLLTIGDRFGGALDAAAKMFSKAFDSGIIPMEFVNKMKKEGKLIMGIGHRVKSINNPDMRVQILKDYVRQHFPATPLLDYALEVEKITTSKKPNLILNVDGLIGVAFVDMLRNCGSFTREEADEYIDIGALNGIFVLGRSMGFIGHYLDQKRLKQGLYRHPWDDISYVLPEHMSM
To be noted: cited from earlier work.

As for `CC(=O)[O-].CC(=O)[O-].O.O.O.O.[Mg+2]` [Mg(CH3COO)2•4H2O], the “E. C (μS/cm)” value in data set [1] stood at 32.3 μS/cm.
For the compound `O=C(O)CO` [glycolic acid], the pKa result in data set [2] was “approx. 3.83”.
For `O=C(O)CC(O)(C(=O)O)C(O)C(=O)O` (stereo not drawn) [HCA, Hydroxycitric acid], in data set [3], the “effective dose extrapolated from rats” value was “approximately 4.5 g/day”. Besides, the “inhibition of DNL / promotion of fatty acid oxidation” value in data set [4] is listed as “failed to inhibit DNL or to promote fatty acid oxidation”.
Consider `CC(=O)[O-].[K+]` [KC2H3O2, K-acetate], for which the “E. C (μS/cm)” value in data set [1] amounted to 56.06 μS/cm.
As to `O=C([O-])CC(O)(C(=O)[O-])C(O)C(=O)[O-].[K+].[Mg+2]` (stereo not drawn) [KMgHCA], the Treatment performance entry in data set [5] (Patient II (72 kg)) was “+−”. Further, the reduction of symptoms result in data set [5] (Subject II) is recorded as “partial reduction of symptoms”. Moreover, in the data set on Osteoporosis, the “patient's condition observed during treatment” value is “slight difficult to walk”.
Turning to `O=C(O)CC(O)(C(=O)O)C(O)C(=O)O` (single isomer, unassigned; (-)) [(−)-HCA, (−)-hydroxycitric acid], the “inhibition of ATP citrate lyase” value in data set [6] is given as “potent inhibitor”.
